As a reminder, the pKa is the pH at which an ionisable group is half protonated. A higher pKa goes with a weaker acid or stronger base.

The structures appear in SMILES notation.

This data set is described as follows: pH-metric titration of pKa.

On to `NC(=O)c1[nH]c(Br)cc(=O)c1O` [Compound 3], for which the pKa came to 9.64 ± 0.02.

The compound `O=c1cc(Br)[nH]c(-c2nnn[nH]2)c1O` [Compound 4] registered a pKa of over 12.

`N/C(=N\O)c1[nH]c(Br)cc(=O)c1O` [Compound 6] displayed a pKa of 9.06 ± 0.02.

In the case of `O=C(O)c1[nH]c(Br)cc(=O)c1O` [Compound 2], the “Measured pKa” value (phenolic proton, pH-metric titration) is listed as 9.79 ± 0.01.

The values are drawn from PMC9841593 (ACS Medicinal Chemistry Letters, 2022).
